Non-standard residues stand in square brackets, D forms with d. Residues, ends and D or L forms follow the SMILES beside them. ξ: configuration not given here. *: point of attachment. ξTHIQ1CO(6-Me) = Cc1ccc2c(c1)CCNC2C(=O)O; X1 = O=C(O)CC(N*)C(=O)COc1c(F)cccc1F; Quinaldoyl = O=C(c1ccc2ccccc2n1)*
How the values were obtained:
[1] = molecular target: T1, human active recombinant caspase-2 (Homo sapiens, UniProt P42575); test: In vitro caspase activity and inhibition assay (IC50), Caspase-2; assay type: biochemical
T1 sequence (P42575 170-325 limits assumed): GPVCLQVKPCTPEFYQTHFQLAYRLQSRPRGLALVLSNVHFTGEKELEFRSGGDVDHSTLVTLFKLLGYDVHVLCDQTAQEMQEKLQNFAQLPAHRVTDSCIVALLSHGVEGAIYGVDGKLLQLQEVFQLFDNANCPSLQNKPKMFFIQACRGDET
T1 sequence (P42575 348-452 limits assumed): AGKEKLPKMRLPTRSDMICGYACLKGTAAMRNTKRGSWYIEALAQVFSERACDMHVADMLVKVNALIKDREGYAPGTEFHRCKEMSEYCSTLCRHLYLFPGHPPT
Experimental: Stock solutions were stored at −80 °C.

[2] = test system: Molt4 lymphoid human cells; test: Panobistat (LBH589)-induced cell death in Molt4 cells (propidium iodide, flow cytometry); assay type: cell-based; conditions: Molt4, 1 h pretreatment (30 µM or indicated doses), 25 nM LBH589 24 h
Experimental: HeLa cells (obtained from ATCC) were cultured in Dulbecco’s Modified Eagle Medium (DMEM, High Glucose, GlutaMAX™, Pyruvate) supplemented with antibiotics and 10% fetal calf serum (FCS) (Gibco, Life Technologies) and maintained in T75 Flasks at 1 × 10^6 cells per flask. Twenty-four hours before treatments, HeLa cells were transferred to 6-well plates (8 × 10^4 cells/well). The lymphoblastoid cell line Molt4cl8 was a gift from Dr. Bernard Krust (Inserm, University Paris 5) and was cultured in RPMI 1640 Glutamax medium supplemented with Hepes, antibiotics, and 10% FCS. HEK293 cells were obtained from ATCC (CRL-1573) and cultured in DMEM with Glutamax and 25 mM glucose (Life Technologies) supplemented with 10% FCS and antibiotics. For cell death induction, the following agents were added to cell cultures: Vincristine (Sigma) and Panobistat (LBH589; Selleck). Cell death was analyzed using fluorescence microscopy (Axio-observer Z1, Zeiss; equipped with CCD camera CoolsnapHQ2, Ropert Scientific) and cytofluorometry (MACSQuant® VYB; Miltenyi Biotec, Bergisch Gladbach, Germany) after labeling with propidium iodide (1 µg/mL; 10 min; 37 °C; Life Technologies) and Hoechst 33342 (1 µg/mL; 5 min; RT; Sigma).
Fig. 5 LJ2 inhibits cell death induced by microtubule destabilization and hydroxamic acid-based deacetylase (HDAC) inhibition. a Effect of the irreversible Caspase-2 inhibitors LJ2 against vincristine-induced cell death. HeLa cells were pretreated for 1 h with the indicated doses of LJ2, Q-VD-OPh, or Q-LETD-OPh, then treated with vincristine (VCR) as in Fig. 2, then incubated with propidium iodide at 2 μg/mL for 10 min and analyzed by flow cytometry. […] Molt4 lymphoid human cells where were pretreated for 1 h with 30 µM of LJ2, Q-VD-OPh, or Belnacasan (VX-765), then treated for 24 h with 25 nM of LBH589, then incubated with propidium iodide as in (a) and analyzed by flow cytometry. […] Molt4 cells were treated as in (b) with the indicated doses of LJ2 or Q-VD-OPh and analyzed by flow cytometry. […]

Cathepsin-D = Cathepsin-D (Homo sapiens, UniProt P07339); test: Non-caspase enzyme assay, Cathepsin-D; assay type: biochemical; conditions: concentrations up to 10 µM
Experimental: (§1) Stock solutions were stored at −80 °C. […]
(§2) Non-caspase enzyme assays
(§3) The human pro- kallikrein-1 (pro-hK1) was activated in a buffer containing: Tris-HCl 50 mM, CaCl2 10 mM, NaCl 150 mM, Brij-35 0,05% pH 7,5. Human pro-kallikrein-6 and -8 (pro-hK6 and 8 were activated using Lysyl-endopeptidase (Wako- BioProducts®) at a 1/500 weight ratio, in a buffer containing 50 mM Tris and 0,05% Brij-35 (pH 8). Kinetics using non-caspase enzymes for selectivity studies were done according to the following conditions.
(§4) Enzymes Substrates Buffers
(§5) Cathepsine B (0.2 nM) z-RR-AMC 20 µM Acétate de sodium 0,1 M; EDTA 1mM ; […]
(§6) Cathepsine L (1.2 nM) RLR-AMC 25 µM Acétate de sodium 0,1 M; EDTA 1mM ; […]
(§7) Cathepsine D (0.1 nM) Mca-Gly-Ly s-Pro-Ile-Leu-Phe-Phe- Citrate de Sodium 0,1 M; EDTA 2 mM ; Arg-Leu-Lys(Dnp)-D-Arg-NH2 10 µM Brij-35 0,01%; pH 4 hK1 (4 nM) Boc-VPR-AMC 100µM Tris 50mM; Citrate 1M; Brij-35 0.05%; pH7 hK6 (2 nM ) Boc-QAR -AMC 100 µM Tris 50mM; Citrate 1M; Brij-35 0.05%; pH7 hK8 (1 nM) Boc-VPR-AMC 100µM Tris 50mM; Citrate 1M; Brij-35 0.05%; pH7
(§8) Thrombine (10 mU/mL) Boc-VPR-AMC 100µM Tris 50mM; Citrate 1M; Brij-35 0.05%; pH7 Plasmine (4 nM ) Boc-QAR -AMC 100µM Tris 50mM; Citrate 1M; Brij-35 0.05%; pH7 Trypsine (0.1 nM) Boc-QAR -AMC 100µM Tris 50mM; Citrate 1M; Brij-35 0.05%; pH7

Thrombin = molecular target: T2, Thrombin (Homo sapiens, UniProt P00734); test: Non-caspase enzyme assay, Thrombin; assay type: biochemical; conditions: concentrations up to 10 µM
T2 construct: The human active Plasmin, Thrombin, and Trypsin; purchased Sigma-Aldrich
Experimental: as §1, §2, §3, §4, §5, §6, §7, §8

Kallikrein-6 = molecular target: T3, Kallikrein-6 (Homo sapiens, UniProt Q92876); test: Non-caspase enzyme assay, Kallikrein-6; assay type: biochemical; conditions: concentrations up to 10 µM
T3 construct: purchased R&D Systems 5164-SE-010
Experimental: as §1, §2, §3, §4, §5, §6, §7, §8

[3] = molecular target: human recombinant Caspase-1 (Homo sapiens, UniProt P29466); test: Additional enzyme kinetics, Caspase-1; conditions: concentrations up to 10 µM
Chain of human recombinant Caspase-1 (P29466 120-297 limits assumed): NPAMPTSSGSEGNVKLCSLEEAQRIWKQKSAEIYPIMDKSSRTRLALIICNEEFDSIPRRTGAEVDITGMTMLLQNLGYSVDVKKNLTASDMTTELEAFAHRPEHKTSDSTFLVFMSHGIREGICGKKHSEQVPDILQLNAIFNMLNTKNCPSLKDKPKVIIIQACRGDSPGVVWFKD
Chain of human recombinant Caspase-1 (P29466 317-404 limits assumed): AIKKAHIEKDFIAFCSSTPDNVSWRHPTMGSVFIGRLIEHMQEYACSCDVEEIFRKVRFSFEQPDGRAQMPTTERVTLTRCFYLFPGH
Experimental: The human active recombinant Caspase-3 (#707-C3) was purchased from R&D Systems (Minneapolis, USA). […] Stock solutions were stored at −80 °C. […] Caspase inhibitors were solubilized in DMSO at 10 mM and stored at −80 °C.
Initial velocity (V0) was determined from the linear portion of the progress curve. The composition of the activity buffer was: 20 mM HEPES, pH 7.4; 0.1% CHAPS, 5 mM DTT, 2 mM EDTA; 800 mM sodium succinate for Caspase-2 (0.2 nM) with 25 µM of Ac-VDVAD-7-amino-3-methylcoumarin (AMC) and 20 mM HEPES, pH 7.4; 0.1% CHAPS, 5 mM DTT, 2 mM EDTA; supplemented with 1 mg/mL of stabilizing agent bovine serum albumin (BSA) for Caspase-3 (0.1 nM) with 10 μM of Ac-DEVD-AMC. Compounds (0.001–100 µM) were tested in duplicate for each inhibitor concentration to detect their inhibitory potential. Enzymes and compounds were incubated for 30 min before initiating enzymatic reaction by adding substrate. Initial rates determined in control experiments (V0) were considered as 100% of the caspase activity; initial rates that were below 100% in the presence of tested compound (Vi) were considered as inhibition. The inhibitory activity of compounds was expressed as IC50 (Inhibitor concentration giving 50% inhibition). The values of IC50 were calculated by fitting the experimental data using Mars data Analysis 2.0 and KaleidaGraph software.1 %Inhibition=1001−Vi/V0=100I0/IC50+I0

Chain of Cathepsin-D (P07339 65-412): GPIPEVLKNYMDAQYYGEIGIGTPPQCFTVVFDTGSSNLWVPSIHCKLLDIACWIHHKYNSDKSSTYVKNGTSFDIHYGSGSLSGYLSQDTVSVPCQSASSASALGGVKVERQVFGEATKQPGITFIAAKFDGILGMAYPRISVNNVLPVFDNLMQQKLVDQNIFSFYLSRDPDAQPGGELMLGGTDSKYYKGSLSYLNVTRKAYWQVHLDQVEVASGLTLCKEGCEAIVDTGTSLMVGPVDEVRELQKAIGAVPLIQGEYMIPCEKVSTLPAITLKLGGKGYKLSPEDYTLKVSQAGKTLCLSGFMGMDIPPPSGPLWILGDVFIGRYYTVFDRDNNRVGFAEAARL

`Cc1ccc2c(c1)CCN(C(=O)[C@@H](NC(=O)[C@H](CC(=O)O)NC(=O)[C@@H](NC(=O)c1ccc3ccccc3n1)C(C)C)C(C)C)C2C(=O)NC(CC(=O)O)C(=O)COc1c(F)cccc1F` (stereo partly drawn) [LJ2, Quinolin-2-carbonyl-VDV-(methyl-isoquinolyl)-D-CH2-O(2,6F2)Ph] (Quinaldoyl-VDV[ξTHIQ1CO(6-Me)]-X1) was tested, and the IC50 [1] was 0.37 ± 0.01 nM and the “effect against Panobistat (LBH589)-induced cell death” value [2] was “dose-dependent inhibition of cell death”.
In the case of `CC(C)[C@H](NC(=O)c1ccc2ccccc2n1)C(=O)N[C@@H](CC(=O)O)C(=O)N[C@H](C(=O)N1CC[C@H](CC(C)(C)C)[C@@H]1C(=O)NC(CC(=O)O)C(=O)COc1c(F)cccc1F)C(C)C` (stereo partly drawn) [LJ3a], the “effect on Cathepsin-D” value (Cathepsin-D) is reported as “very limited or no effect”, the “effect on Thrombin” value (Thrombin) is reported as “very limited or no effect” and the “effect on Kallikrein-6” value (Kallikrein-6) is reported as “very limited or no effect”. For the same compound, the “effect on Caspase-1” value [3] was “very limited or no effect”.

From publication PMC9666555, “Genuine selective caspase-2 inhibition with new irreversible small peptidomimetics” (Cell Death & Disease, 2022)
